Measurements reported in the Kinase Knowledgebase extract (Sharma et al. 2016).

These compounds were tested against CDK2 (human) (UniProt P24941) (assay: Enzyme Assay).

Structure (SMILES)	Ki [µM]
Cc1cnc(NC(CCNc2ccc3c(=O)[nH][nH]c3c2)c2ccccc2)s1 (centres undefined)	< 1
Cc1cc(Nc2nc(CSc3ccc4[nH][nH]c(=O)c4c3)nc3c2CCCC3)n[nH]1	< 1
O=C(CCCc1ccc2c(=O)[nH][nH]c2c1)Nc1nccnn1	< 1
O=c1[nH][nH]c2ccc(C3COCC(Nc4nccnn4)C3)cc12 (centres undefined)	< 1
Cc1cc(Nc2cc(C(C)(C)OCCN(C)C)nc(Sc3ccc4c(=O)[nH][nH]c4c3)n2)n[nH]1	< 1
O=c1[nH][nH]c2cc(Nc3ncc(Nc4ccccc4)c(Nc4cc(C5CC5)[nH]n4)n3)ccc12	< 1
Cc1cc(Nc2nc(Sc3ccc4c(=O)[nH][nH]c4c3)nc3cc(NO)ccc23)n[nH]1	< 1
O=C(NC1CCCCC1)c1cc(Nc2nc(-c3ccc4[nH][nH]c(=O)c4c3)nc3ccccc23)n[nH]1	< 1
Cc1cnc(NC2CCCC2CSc2ccc3c(=O)[nH][nH]c3c2)s1 (centres undefined)	< 1
O=c1[nH][nH]c2cc(C(F)(F)F)c(-c3cc4cccnc4c(Nc4n[nH]c5ccccc45)n3)cc12	< 1
Cn1cnc(Nc2cccc(Nc3ccc4c(=O)[nH][nH]c4c3)c2)c1	< 1
O=c1[nH][nH]c2cc(Nc3nc(Nc4cc(C5CCC5)[nH]n4)c4ccccc4n3)ccc12	< 1
O=c1[nH][nH]c2ccc(Nc3nc(Nc4cc(C5CC5)[nH]n4)c4ccccc4n3)cc12	< 1
O=c1[nH][nH]c2cc(SCCC(Nc3nccnn3)c3ccccc3)ccc12 (centres undefined)	< 1
Cc1cc(Nc2cc(-c3ccccc3)nc(Oc3ccc4c(=O)[nH][nH]c4c3)n2)n[nH]1	< 1
Cc1cnc(Sc2ccc3c(=O)[nH][nH]c3c2)nc1Nc1cc(C2CC2)[nH]n1	< 1
Cc1cc(Nc2nc(Sc3ccc4c(=O)[nH][nH]c4c3)nc3cc(O)ccc23)n[nH]1	< 1
Cc1cc(Nc2nc([C@@H]3C[C@H]3c3ccc4c(=O)[nH][nH]c4c3)nc3ccccc23)n[nH]1	< 1
CCCCc1cc(Nc2nc(-c3ccc4[nH][nH]c(=O)c4c3)nc(C3CC3)n2)n[nH]1	< 1
O=c1[nH][nH]c2cc(Sc3nccc(Nc4cc(C5CC5)[nH]n4)n3)ccc12	< 1
Cn1cnc(NC(=O)CC(=O)Cc2ccc3c(=O)[nH][nH]c3c2)c1	< 1
O=c1[nH][nH]c2ccc(-c3nc(Nc4n[nH]c(-c5ccccc5)c4-c4ccccc4)c4ccccc4n3)c(C(F)(F)F)c12	< 1
O=C(CCNc1cc(C2CC2)[nH]n1)Oc1ccc2c(=O)[nH][nH]c2c1	< 1
O=c1[nH][nH]c2cc(Oc3nc(Nc4cc(C5CC5)[nH]n4)cc(-c4ccccc4)n3)ccc12	< 1
O=C(CC(=O)Nc1ccccn1)Cc1ccc2c(=O)[nH][nH]c2c1	< 1

Structure (SMILES)	Ki [µM]
Cc1cc(Nc2ccnc(Cc3ccc4c(=O)[nH][nH]c4c3)c2)n[nH]1	< 1
O=c1[nH][nH]c2cc(SCCONc3nccnn3)ccc12	< 1
Cc1nc(-c2cc3c(=O)[nH][nH]c3cc2Cl)cc(Nc2n[nH]c3ccc(F)cc23)c1C	< 1
O=c1[nH][nH]c2cc(OC(CCNc3ccccn3)Cc3ccccc3)ccc12 (centres undefined)	< 1
COCc1cc(Nc2cc(C)[nH]n2)nc(Nc2ccc3c(=O)[nH][nH]c3c2)n1	< 1
Cc1cnc(NC2CCCC2CNc2ccc3c(=O)[nH][nH]c3c2)s1 (centres undefined)	< 1
Nc1c(Nc2ccc3c(=O)[nH][nH]c3c2)ncnc1Nc1cc(C2CC2)[nH]n1	< 1
Cc1cc(Nc2nc(C3(c4ccc5c(=O)[nH][nH]c5c4)CC3)nc3ccccc23)n[nH]1	< 1
Cc1cc(Nc2nc(-c3cc4c(=O)[nH][nH]c4cc3Cl)cc3ccccc23)n[nH]1	< 1
O=c1[nH][nH]c2ccc(-c3nc4c(c(Nc5n[nH]c(C6CC6)n5)n3)CCCCC4)c(C(F)(F)F)c12	< 1
Cn1cnc(NC2CCC(Oc3ccc4c(=O)[nH][nH]c4c3)C2)c1 (centres undefined)	< 1
O=c1[nH][nH]c2cc(OC3COCC(Nc4ccccn4)C3)ccc12 (centres undefined)	< 1
COc1ccc(-c2cc(Nc3cc(C)[nH]n3)nc(Oc3ccc4c(=O)[nH][nH]c4c3)n2)cc1	< 1
Cc1cc(Nc2nc(CCc3ccc4[nH][nH]c(=O)c4c3)nc3c2CCCC3)n[nH]1	< 1
O=c1[nH][nH]c2ccc(-c3nc(Nc4n[nH]c5c(F)cc(F)cc45)c4ccncc4n3)c(Cl)c12	< 1
O=c1[nH][nH]c2cc(Sc3cc(Nc4cc(C5CC5)[nH]n4)c4ccccc4n3)ccc12	< 1
Cn1cnc(NCCC(=O)Cc2ccc3c(=O)[nH][nH]c3c2)c1	< 1
COc1ccc2c(Nc3cc(C)[nH]n3)nc(Sc3ccc4c(=O)[nH][nH]c4c3)nc2c1	< 1
Cc1cc(Nc2cc(-c3ccccc3)[nH]n2)nc(COc2ccc3c(=O)[nH][nH]c3c2)n1	< 1
NC1CCCCC1c1cc(Nc2n[nH]c3ccccc23)nc(-c2ccc3[nH][nH]c(=O)c3c2C(F)(F)F)n1 (centres undefined)	< 1
Cc1cc(Nc2nc(-c3ccc4[nH][nH]c(=O)c4c3)nc3cc(-n4cccc4)ccc23)n[nH]1	< 1
O=c1[nH][nH]c2cc(Nc3nc(Nc4ccc5c(=O)[nH][nH]c5c4)c4ccccc4n3)ccc12	< 1
Cn1cnc(NCCCNc2ccc3c(=O)[nH][nH]c3c2)c1	< 1
O=C(CC(=O)Nc1nccnn1)Cc1ccc2c(=O)[nH][nH]c2c1	< 1
O=c1[nH][nH]c2cc(Sc3nc(Nc4cc(C5CC5)[nH]n4)c4ccccc4n3)ccc12	< 1

Structure (SMILES)	Ki [µM]
O=c1[nH][nH]c2cc(Cl)c(-c3cc(Nc4n[nH]c5ccccc45)c4c(n3)CCCC4)cc12	< 1
O=c1[nH][nH]c2ccc(CNc3nc(Nc4cc(C5CC5)[nH]n4)cc(-c4ccccc4)n3)cc12	< 1
O=c1[nH][nH]c2cc(Nc3ncc([N+](=O)[O-])c(Nc4cc(C5CC5)[nH]n4)n3)ccc12	< 1
Cn1cnc(NCCC(=O)Nc2ccc3c(=O)[nH][nH]c3c2)c1	< 1
Cc1cc(Nc2nc(-c3ccc4[nH][nH]c(=O)c4c3C(F)(F)F)nc3c2CCNCC3)n[nH]1	< 1
O=c1[nH][nH]c2cc(NOCCNc3nccnn3)ccc12	< 1
O=c1[nH][nH]c2cc(Cc3cc4ccccc4c(Nc4cc(C5CC5)[nH]n4)n3)ccc12	< 1
O=c1[nH][nH]c2cc(Nc3nc(Nc4cc(C5CC5)[nH]n4)c4ccc(Cl)cc4n3)ccc12	< 1
Cc1cc(Nc2nc(Nc3ccc4c(=O)[nH][nH]c4c3)nc3ccc(I)cc23)n[nH]1	< 1
O=C(CCNc1ccc2c(=O)[nH][nH]c2c1)Nc1nccnn1	< 1
Cn1cnc(NCCC(Cc2ccccc2)Sc2ccc3c(=O)[nH][nH]c3c2)c1 (centres undefined)	< 1
O=c1[nH][nH]c2cc(SCCONc3cc(C4CC4)[nH]n3)ccc12	< 1
O=c1[nH][nH]c2cc(Oc3nc(Nc4cc(C5CC5)[nH]n4)c4ccccc4n3)ccc12	< 1
O=c1[nH][nH]c2ccc(C3CCC(Nc4nccnn4)C3)cc12 (centres undefined)	< 1
Cc1cc(Nc2cc(N3CCCC3)nc(SCc3ccc4c(=O)[nH][nH]c4c3)n2)n[nH]1	< 1
Cc1cnc(NCCC(Cc2ccccc2)Nc2ccc3c(=O)[nH][nH]c3c2)s1 (centres undefined)	< 1
O=c1[nH][nH]c2cc(SCC3CCCC3Nc3ccccn3)ccc12 (centres undefined)	< 1
O=c1[nH][nH]c2cc(OCCC(Nc3ccccn3)c3ccccc3)ccc12 (centres undefined)	< 1
N#Cc1cc2[nH][nH]c(=O)c2cc1-c1nc(Nc2n[nH]c3ccccc23)nc(N2CCCCC2)n1	< 1
O=c1[nH][nH]c2ccc(-c3nc(Nc4n[nH]c5ccccc45)cc(-c4ccccc4)n3)c(C(F)(F)F)c12	< 1
Cc1cc(Nc2nc(-c3cc4c(=O)[nH][nH]c4cc3C(F)(F)F)nc3cnoc23)n[nH]1	< 1
Cc1cnc(NC(=O)CCSc2ccc3c(=O)[nH][nH]c3c2)s1	< 1
Cc1cc(Nc2cc(NCCN(C)C)nc(Sc3ccc4c(=O)[nH][nH]c4c3)n2)n[nH]1	< 1
O=c1[nH][nH]c2cc(CCC3CCCC3Nc3cc(C4CC4)[nH]n3)ccc12 (centres undefined)	< 1
O=c1[nH][nH]c2cc(Nc3cccc(Nc4ccccn4)c3)ccc12	< 1

Structure (SMILES)	Ki [µM]
O=C(CC(=O)Oc1ccc2c(=O)[nH][nH]c2c1)Nc1ccccn1	< 1
O=c1[nH][nH]c2cc(CCC3CCC(Nc4nccnn4)C3)ccc12 (centres undefined)	< 1
Cc1cc(Nc2nc(Nc3ccc4c(=O)[nH][nH]c4c3)nc3c2CCCCC3)n[nH]1	< 1
Cc1cc(Nc2nc(COc3ccc4[nH][nH]c(=O)c4c3)nc3c2CCCC3)n[nH]1	< 1
O=c1[nH][nH]c2cc(Sc3cc4ccccc4c(Nc4cc(C5CC5)[nH]n4)n3)ccc12	< 1
O=c1[nH][nH]c2cc(O)c(-c3nc(Nc4n[nH]c5c(F)cc(F)cc45)c4ccccc4n3)cc12	< 1
O=C(CCOc1ccc2c(=O)[nH][nH]c2c1)Nc1nccnn1	< 1
O=c1[nH][nH]c2cc(CCCC(Nc3cc(C4CC4)[nH]n3)c3ccccc3)ccc12 (centres undefined)	< 1
O=c1[nH][nH]c2cc(Oc3cc4ccccc4c(Nc4cc(C5CC5)[nH]n4)n3)ccc12	< 1
Cc1cnc(NCCC(=O)Nc2ccc3c(=O)[nH][nH]c3c2)s1	< 1
Cc1cc(Nc2nc(-c3c(C)cc4[nH][nH]c(=O)c4c3C)nc3ccccc23)n[nH]1	< 1
Cc1cc(Nc2ccnc(Sc3ccc4c(=O)[nH][nH]c4c3)c2)n[nH]1	< 1
Cn1cnc(NC(=O)CCSc2ccc3c(=O)[nH][nH]c3c2)c1	< 1
O=c1[nH][nH]c2cc(NC3COCC(Nc4nccnn4)C3)ccc12 (centres undefined)	< 1
O=c1[nH][nH]c2cc(SCC3CCCC3Nc3nccnn3)ccc12 (centres undefined)	< 1
Cc1cnc(NC2COCC(Nc3ccc4c(=O)[nH][nH]c4c3)C2)s1 (centres undefined)	< 1
O=c1[nH][nH]c2cc(Nc3cc4ccccc4c(Nc4cc(C5CC5)[nH]n4)n3)ccc12	< 1
Cc1cc(Nc2cccc(Sc3ccc4c(=O)[nH][nH]c4c3)n2)n[nH]1	< 1
O=C(CCNc1ccccn1)Cc1ccc2c(=O)[nH][nH]c2c1	< 1
Cc1cnc(NC(=O)CC(=O)Nc2ccc3c(=O)[nH][nH]c3c2)s1	< 1
Cc1nc(Nc2ccc3c(=O)[nH][nH]c3c2)nc(Nc2cc(C3CC3)[nH]n2)n1	< 1
CCc1cc(Nc2cc(C)[nH]n2)nc(C2(c3ccc4c(=O)[nH][nH]c4c3)CCC2)n1	< 1
Cc1cc(Nc2cc(Nc3ccc4c(=O)[nH][nH]c4c3)nc3ccccc23)n[nH]1	< 1
O=c1[nH][nH]c2cc(Nc3nc(Nc4cc(C5CC5)[nH]n4)c4cc(-c5ccccc5)ccc4n3)ccc12	< 1
